According to paper PMC4537050, “A long pentraxin-3-derived pentapeptide for the therapy of FGF8b-driven steroid hormone-regulated cancers” (Oncotarget, 2015):

What was measured:
[1] = molecular target: T1, HSPG/FGF8b/FGFR1 ternary complexes (Homo sapiens, UniProt P55075); test: HSPG/FGF8b/FGFR1 mediated cell-cell adhesion assay; assay type: cell-based; details: 30 ng/ml FGF8b, increasing peptide concentrations
T1 construct: purchased PeproTech; host or cells: FGF8b was added to A745-CHO-flg-1A-luc cells (FGFR1 IIIc transfected) on a glutaraldehyde-fixed CHO-K1 monolayer (endogenous HSPGs)
T1 sequence (P55075 23-215 isoform P55075-3 limits assumed): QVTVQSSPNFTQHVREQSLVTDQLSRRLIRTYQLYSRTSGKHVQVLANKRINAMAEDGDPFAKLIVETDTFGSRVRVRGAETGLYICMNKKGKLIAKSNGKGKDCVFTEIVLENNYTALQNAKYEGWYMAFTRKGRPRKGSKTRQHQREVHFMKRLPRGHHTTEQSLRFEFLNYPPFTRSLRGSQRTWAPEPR
Method: This assay was performed as described with minor modifications. Briefly, wild-type CHO-K1 cells were seeded in 24-well plates at 150000 cells/cm^2. After 24 h, cell monolayers were washed with PBS and incubated with 3% glutaraldehyde in PBS for 2 h at 4°C. Fixation was stopped with 0.1 M glycine and cells were washed extensively with PBS. Then, A745-CHO-flg-1A-luc cells (50000 cells/cm^2) were added to CHO-K1 monolayers in serum-free medium plus 10 mM EDTA with or without 30 ng/ml FGF8b in the absence or presence of increasing concentrations of the ARPCA or ARPVA peptides. After 2 h of incubation at 37°C, unattached cells were removed by washing twice with PBS, and A745-CHO-flg-1A-luc bound to the CHO-K1 monolayer were solubilized and luciferase activity was quantified. All experiments were performed in triplicate.

[2] = system: chick embryo chorioallantoic membrane (CAM); test: Chick embryo CAM assay with growth factor alginate implants; assay type: in vivo; details: vessels counted at day 14
Method: Alginate plugs containing vehicle, FGF8b (4.5 pmoles/embryo), VEGF-A (4.5 pmoles/embryo) or S115 cells (2.5×10^4/embryo) in the absence or presence of ARPCA (80 or 140 pmoles/embryo) or ARPVA (140 pmoles/embryo) were placed on the CAM of fertilized white leghorn chicken eggs at day 11 of incubation. At day 14, newly formed blood microvessels converging toward the implant were counted by two observers in a double-blind fashion at 5x magnification under a stereomicroscope (STEMI-SR, x2/0.12; Zeiss) as described.

[3] = system: FGFR1 phosphorylation and ERK1/2 activation in S115 cells; test: Western blot of FGF8b-treated S115 cells; assay type: cell-based, mouse; details: 30 ng/ml FGF8b, 100 μM peptide, 20 minutes
Method: S115 cells were treated with FGF8b (30ng/ml) in the presence or absence of ARPCA (100 μM) or ARPVA (100 μM). After 20 minutes of incubation cell samples were washed in cold PBS and homogenized in RIPA buffer containing 1% Triton-X100, 0.2% BriJ, 1 mM sodium orthovanadate and protease inhibitors cocktail. Protein concentrations were determined using the Bradford protein assay (Bio-Rad Laboratories, Milano, Italy). Blotting analysis was performed using anti-FGFR1, anti-phospho FGFR1 and anti-phosphoERK1/2 antibodies (Santa Cruz Biotechnology, Santa Cruz, CA, USA). Equal loading of the lanes was confirmed by immunoblotting with anti–αTubulin (Sigma-Aldrich) antibody.

S115 tumor grafts = test: Murine s.c. alginate implant assay, S115 cells; assay type: in vivo, athymic Nu/Nu male mice; details: i.p. 100 mg/kg every other day, plugs harvested day 14, compared to ARPVA-treated animals
Method: Eightweek-old athymic Nu/Nu or C57BL/6 male mice were injected s.c. with 450 μl of 3% (w/v) sodium alginate solution (alginic acid dissolved in LPS-free PBS) containing 5×10^6 S115 or 8×10^6 TRAMP-C2 cells, respectively. Mice were treated i.p. with ARPCA or ARPVA (100 mg/kg) on day 7, 9, 11 and 13 after implant. On day 14, alginate gels were harvested, weighted, embedded in OCT-compound and immediately frozen to be processed for histological analysis. For immunofluorescence stainings, sections (5 μm thick) were obtained with a cryostat microtome, air dried and fixed with acetone (for 5 min at 4°C). After blocking with 1% BSA (Bovine Serum Albumin) in PBS for 10 minutes, sections were incubated with primary antibodies, rabbit anti-FGFR1 (Santa Cruz Biotechnology), rabbit anti-phospho FGFR1 (Santa Cruz Biotechnology), Ki67 (Dako, Milano, Italy, EU) or CD31 (BD Biosciences Pharmingen, San Diego, CA, USA). After washing with PBS containing 0.05% Tween 20, sections were incubated with the appropriate Alexa Fluor 488 or Alexa Fluor 594-conjugated secondary antibody (Invitrogen). After mounting in a drop of anti-bleaching mounting medium containing DAPI (Vectashield, Vector Laboratories, Burlingame, CA, USA), sections were examined under a Zeiss Fluorescence Axiovert 200M microscope (Carl Zeiss).

S115 tumors = test: In vivo tumor therapy study, S115 tumors; set-up: species or system athymic Nu/Nu male mice; details: s.c. S115 cells, i.p. 100 mg/kg every other day starting at day 8, followed for the next 32 days
Method: Eight week old C57BL/6 male mice were injected s.c. with 8×10^6 TRAMP-C2 cells, and eight week old athymic Nu/Nu male mice were injected s.c. with 5×10^6 S115 cells. All injections were performed in 200 μl total volume of PBS into the dorsolateral flank. When tumors were palpable treatment was performed every other day by i.p. injection of ARPCA, ARPVA (both at 100 mg/kg) or vehicle (PBS) in 100 μl final volume. Tumors were measured in two dimensions and tumor volume was calculated according to the formula V=(D × d^2)/2, where D and d are the major and minor perpendicular tumor diameters, respectively. At the end of the experimental procedure tumors were harvested, weighted and photographed.

FGF8b = molecular target: T2, FGF8b (Homo sapiens, UniProt P55075); test: ARPCA-FGF8 interaction by 2D 1H-13C HSQC NMR titration; assay type: binding; set-up: purchased ASLA (Riga, Latvia); details: 190 μM ARPCA, FGF8b:ARPCA 0.5:1 and 1:1, intermediate to fast exchange
T2 sequence (P55075 23-215 isoform P55075-3 limits assumed): T1 sequence (P55075 23-215 isoform P55075-3 limits assumed)
Method: NMR experiments were collected on samples containing 190 μM of ARPCA, dissolved in 50 mM potassium phosphate buffer pH 6.7 (90% H2O/10% D2O), 2.5 mM arginine, 10mM NaCl in the presence of variable concentrations of FGF8 corresponding to 1:0, 1:0.5, and 1:1 ARPCA:FGF8 ratios.
2D 1H-13C HSQC spectra were recorded with a sweep width of 10 ppm and 100 ppm.2k × 128 data points were used in proton and carbon dimensions, respectively. Data, acquired and processed using Topspin (Bruker Biospin), were apodized with a squared sinebell shifted by 90° and polynomial baseline correction. All NMR spectra were recorded at 298 K with a Bruker DMX spectrometer operating at 600 MHz.

## Ac-ARPCA-NH2 [ARPCA, Ac-ARPCA-NH2]
[1]
  inhibitory activity on FGF8b-mediated cell-cell adhesion (in words): dose-dependent inhibitory activity
[2]; 4.5 pmoles FGF8b/plug, ARPCA 80 or 140 pmoles, ARPVA 140 pmoles
  angiogenic response elicited by FGF8b in the CAM: significantly reduced
[2]; 4.5 pmoles VEGF-A/plug
  angiogenic response elicited by VEGF-A in the CAM: No inhibitory effect
[3]
  FGFR1 phosphorylation in S115 cells treated with FGF8b: inhibits FGFR1 phosphorylation
  MAPK ERK1/2 activation in S115 cells treated with FGF8b: inhibits
S115 tumor grafts
  CD31+ neovascularization in S115 tumor grafts: efficiently inhibited
  FGFR1 phosphorylation in S115 tumor grafts: efficiently inhibited
  Ki67+ proliferation index in S115 tumor grafts: efficiently inhibited
S115 tumors
  S115 tumor growth, long-term experiment: suppresses S115 tumor growth
FGF8b
  binding to FGF8b indicated by NMR titration: micromolar range
